pIC50: −log10 of the molar value.
Assays:
[1] = system: rat adjuvant-induced arthritis; assay: Inhibitory Action on Adjuvant Arthritis (1) (Assay Example 2); format: in vivo, male Fisher rats; details: oral 5 mg/kg
Method: Dry Mycobacterium butyricum killed organisms (Difco) were suspended in liquid paraffin to make the concentration 1% and the resulting suspension used as an adjuvant. The adjuvant (50 μl) was subplantarly injected to the right hind paw of male Fisher rats (5 to 6 animals per group) to raise arthritis. Each test compound was suspended in a 0.5% aqueous sodium carboxymethylcellulose (CMC-Na) solution and orally administered to the rats at a dose of 5 mg/kg on days 0, 3, 7, 10, 14, 17 and 20 (7 times in total) after the arthritis induction. On the 21st disease day the rats were measured for their body weight and the edema of their right and left hind paws. Simultaneously, systemic inflammatory states were scored. In addition, each of their spleen and thymus was taken out by excision to measure their wet weight and their relative weight per 100 g body weight was calculated.

COX-1 [2] = target: T1, COX-1 (Ovis aries, UniProt P05979); assay: Inhibitory Activity on COX-1 (Assay Example 1); format: biochemical; details: Table 1; read-out: COX Inhibiting Activity IC50, COX-1
T1 construct: purchased Cayman Chemical Co
T1 sequence (P05979 25-600): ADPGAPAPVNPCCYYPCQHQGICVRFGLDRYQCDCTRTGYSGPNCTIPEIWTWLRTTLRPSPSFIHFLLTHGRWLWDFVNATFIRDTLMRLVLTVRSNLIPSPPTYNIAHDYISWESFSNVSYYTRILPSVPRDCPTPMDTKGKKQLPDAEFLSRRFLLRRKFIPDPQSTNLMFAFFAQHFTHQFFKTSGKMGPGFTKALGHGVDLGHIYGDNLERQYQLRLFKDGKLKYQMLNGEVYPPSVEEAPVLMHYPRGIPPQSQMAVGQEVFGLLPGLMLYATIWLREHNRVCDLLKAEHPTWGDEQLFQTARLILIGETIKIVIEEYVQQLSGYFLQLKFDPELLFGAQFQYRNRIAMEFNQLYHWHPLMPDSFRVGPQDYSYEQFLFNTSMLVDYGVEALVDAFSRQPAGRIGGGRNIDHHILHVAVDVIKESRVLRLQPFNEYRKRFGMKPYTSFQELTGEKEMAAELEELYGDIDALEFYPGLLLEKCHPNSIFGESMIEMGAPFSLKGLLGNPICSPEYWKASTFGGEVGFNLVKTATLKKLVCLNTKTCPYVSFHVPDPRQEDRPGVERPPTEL

COX-2 [3] = target: T2, COX-2 (Ovis aries, UniProt P79208); assay: Inhibitory Activity on COX-2 (Assay Example 1); format: biochemical; details: Table 1; for pIC50: read-out: COX Inhibiting Activity IC50, COX-2
T2 construct: purchased Cayman Chemical Co
T2 sequence (P79208 17-603): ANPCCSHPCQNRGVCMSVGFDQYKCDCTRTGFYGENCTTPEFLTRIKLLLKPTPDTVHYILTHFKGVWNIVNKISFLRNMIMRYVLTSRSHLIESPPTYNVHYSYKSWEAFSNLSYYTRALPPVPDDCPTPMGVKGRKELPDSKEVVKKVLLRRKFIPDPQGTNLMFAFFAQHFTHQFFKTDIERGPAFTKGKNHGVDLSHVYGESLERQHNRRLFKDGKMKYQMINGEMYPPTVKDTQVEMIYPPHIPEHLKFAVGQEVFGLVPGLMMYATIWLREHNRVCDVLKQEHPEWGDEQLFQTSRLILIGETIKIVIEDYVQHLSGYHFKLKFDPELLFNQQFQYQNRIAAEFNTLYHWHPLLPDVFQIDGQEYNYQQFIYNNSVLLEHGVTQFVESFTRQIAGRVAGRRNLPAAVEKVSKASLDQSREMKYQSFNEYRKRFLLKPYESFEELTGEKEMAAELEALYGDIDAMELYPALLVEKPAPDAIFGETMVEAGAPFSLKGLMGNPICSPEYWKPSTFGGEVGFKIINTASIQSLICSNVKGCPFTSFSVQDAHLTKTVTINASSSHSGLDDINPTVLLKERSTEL

COX-1 [4] = target: T1, COX-1; assay: Inhibitory Activity on COX-1 (Assay Example 5); format: biochemical; details: Table 4; read-out: COX Inhibiting Activity IC50, COX-1
COX-2 [5] = target: T2, COX-2; assay: Inhibitory Activity on COX-2 (Assay Example 5); format: biochemical; details: Table 4; for pIC50: read-out: COX Inhibiting Activity IC50, COX-2
[6] = system: adjuvant arthritis in rats; assay: Inhibitory Action on Adjuvant Arthritis (2) (Assay Example 6); format: in vivo, male F344/Du (Fisher) rats; details: oral 1 mg/5 ml/kg daily, 17 days; for % Inhibition against Reduction of Gain in Body Weight / Edema Inhibition (%) Left Hind Paw (Non-inflamed Paw) / Edema Inhibition (%) Right Hind Paw (Inflamed Paw): measured next day; for % Inhibition against Change in Relative Weight, Spleen / % Inhibition against Change in Relative Weight, Thymus: relative weight per 100 g body weight; for Inflammation Score Inhibition (%): scored next day
Method: A 1% dry Mycobacterium tuberculosis H37 RA killed organism suspension in liquid paraffin was employed as an adjuvant. The adjuvant suspension (50 μl) was subplantarly administered to the right hind paw of male F344/Du (Fisher) rats (5 to 6 animals per group) to raise arthritis. […] The next day after the final administration, the rats were measured for their body weight and the edema of their right and left hind paws. Simultaneously, systemic inflammatory states were scored. In addition, each of their spleen and thymus was taken out by excision to measure their wet weight and their relative weight per 100 g body weight was determined.

[7] = 7 times, relative weight per 100 g body weight, day 21
[8] = days 0, 3, 7, 10, 14, 17, 20, measured day 21

Row | pIC50 (COX-1 [4]) | COX-1/COX-2 (ratio of IC50 values) (COX-2 [5]) | pIC50 (COX-2 [5]) | SMILES | other results
1 | 5.74 | 21 | 7.07 | NS(=O)(=O)c1ccc(-n2nc(C(F)F)cc2-c2nc3ccc(Cl)cc3s2)cc1 [Example 24, 4-[5-(6-Chlorobenzothiazol-2-yl)-3-difluoromethyl-1H-pyrazol-1-yl]benzenesulfonamide] | –
2 | < 4.00 | > 250 | 6.40 | COc1ccc2nc(-c3cc(C(F)F)nn3-c3ccc(S(N)(=O)=O)cc3)sc2c1 [Example 25, 4-[3-Difluoromethyl-5-(6-methoxybenzothiazol-2-yl)-1H-pyrazol-5-yl]benzenesulfonamide] | –
3 | < 4.00 | > 769 | 6.89 | Cc1ccc2nc(-c3cc(C(F)F)nn3-c3ccc(S(C)(=O)=O)cc3)sc2c1 [Example 26, 6-Methyl-2-[1-(4-methylsulfonylphenyl)-3-difluoromethyl-1H-pyrazol-5-yl]benzothiazole] | –
4 | 4.48 | 623 | 7.28 | Cc1ccc2nc(-c3cc(C(F)F)nn3-c3ccc(S(N)(=O)=O)cc3)sc2c1 [Example 27] | –
5 | < 4.00 | > 1190 | 7.08 | CS(=O)(=O)c1ccc(-n2nc(C(F)F)cc2-c2nc3cccc(F)c3s2)cc1 [Example 28, 7-Fluoro-2-[1-(4-methylsulfonylphenyl)-3-difluoromethyl-1H-pyrazol-5-yl]benzothiazole] | –
6 | < 4.00 | > 8333 | 7.92 | NS(=O)(=O)c1ccc(-n2nc(C(F)F)cc2-c2nc3cccc(F)c3s2)cc1 [Example 29, 4-[5-(7-Fluorobenzothiazol-2-yl)-3-difluoromethyl-1H-pyrazol-1-yl]benzenesulfonamide] | % Inhibition against Reduction of Gain in Body Weight [6]: 73%; Edema Inhibition (%) Left Hind Paw (Non-inflamed Paw) [6]: 124%; Edema Inhibition (%) Right Hind Paw (Inflamed Paw) [6]: 82%; % Inhibition against Change in Relative Weight, Spleen [6]: 25%; % Inhibition against Change in Relative Weight, Thymus [6]: 80%; Inflammation Score Inhibition (%) [6]: 86%
7 | < 4.00 | > 417 | 6.62 | Cc1cccc2nc(-c3cc(C(F)F)nn3-c3ccc(S(N)(=O)=O)cc3)sc12 [Example 31, 4-[3-Difluoromethyl-5-(7-methylbenzothiazol-2-yl)-1H-pyrazol-1-yl]benzenesulfonamide] | –
8 | < 4.00 | > 270 | 6.43 | Cc1ccc2nc(-c3cc(C(F)(F)C(F)(F)F)nn3-c3ccc(S(C)(=O)=O)cc3)sc2c1 [Example 32, 6-Methyl-2-[1-(4-methylsulfonylphenyl)-3-pentafluoroethyl-1H-pyrazol-5-yl]benzothiazole] | –
9 | < 4.00 | > 769 | 6.89 | Cc1ccc2nc(-c3cc(C(F)(F)C(F)(F)F)nn3-c3ccc(S(N)(=O)=O)cc3)sc2c1 [Example 33, 4-[5-(6-Methylbenzothiazol-2-yl)-3-pentafluoroethyl-1H-pyrazol-5-yl]benzenesulfonamide] | –
10 | < 4.00 | > 417 | 6.62 | NS(=O)(=O)c1ccc(-n2nc(C(F)F)cc2-c2nc3c(F)cccc3s2)cc1 [Example 41] | –

Second part, the molecule before the results:

Row | SMILES | pIC50 (COX-1 [4]) | COX-1/COX-2 (ratio of IC50 values) (COX-2 [5]) | pIC50 (COX-2 [5]) | other results
11 | CS(=O)(=O)c1ccc(-n2nc(C(F)(F)F)cc2-c2nc3cc(F)ccc3s2)cc1 [Example 4, 5-Fluoro-2-[1-(4-methylsulfonylphenyl)-3-trifluoromethyl-1H-pyrazol-5-yl]benzothiazole] | – | – | – | % Inhibition against Change in Relative Weight, Spleen [1, 7]: 2.9%; % Inhibition against Change in Relative Weight, Thymus [1, 7]: 148.9%; % Inhibition against Reduction of Gain in Body Weight [1, 8]: 78.7%; Edema Inhibition (%) Left Hind Paw (Non-inflamed Paw) [1, 8]: 91%; Edema Inhibition (%) Right Hind Paw (Inflamed Paw) [1, 8]: 83%; Inflammation Score Inhibition (%) ([1]; days 0, 3, 7, 10, 14, 17, 20, scored day 21): 100%
12 | CS(=O)(=O)c1ccc(-n2nc(C(F)(F)F)cc2-c2nc3ccccc3s2)cc1 [Example 8, 2-[1-(4-Methylsulfonylphenyl)-3-trifluoromethyl-1H-pyrazol-5-yl]benzothiazole] | – | – | – | pIC50 (COX-1 [2]): < 4.00; COX-1/COX-2 (ratio of IC50 values) (COX-2 [3]): > 294; pIC50 (COX-2 [3]): 6.47
13 | CS(=O)(=O)c1ccc(-n2nc(C(F)(F)F)cc2-c2nc3ccc(Cl)cc3s2)cc1 [Example 10, 6-Chloro-2-[1-(4-methylsulfonylphenyl)-3-trifluoromethyl-1H-pyrazol-5-yl]benzothiazole] | – | – | – | pIC50 (COX-1 [2]): < 4.00; COX-1/COX-2 (ratio of IC50 values) (COX-2 [3]): > 185; pIC50 (COX-2 [3]): 6.27
14 | COc1ccc2nc(-c3cc(C(F)(F)F)nn3-c3ccc(S(N)(=O)=O)cc3)sc2c1 [Example 11, 4-[5-(6-Methoxybenzothiazol-2-yl)-3-trifluoromethyl-1H-pyrazol-1-yl]benzenesulfonamide] | – | – | – | pIC50 (COX-1 [2]): < 4.00; COX-1/COX-2 (ratio of IC50 values) (COX-2 [3]): > 208; pIC50 (COX-2 [3]): 6.32
15 | NS(=O)(=O)c1ccc(-n2nc(C(F)(F)F)cc2-c2nc3ccccc3s2)cc1 [Example 14, 4-[5-(Benzothiazol-2-yl)-3-trifluoromethyl-1H-pyrazol-1-yl]-benzenesulfonamide] | < 4.00 | > 1786 | 7.25 | –
16 | Cc1ccc2nc(-c3cc(C(F)(F)F)nn3-c3ccc(S(N)(=O)=O)cc3)sc2c1 [Example 16, 4-[5-(6-Methylbenzothiazol-2-yl)-3-trifluoromethyl-1H-pyrazol-5-yl]benzenesulfonamide] | < 4.00 | > 172 | 6.24 | –
17 | CS(=O)(=O)c1ccc(-n2nc(C(F)(F)F)cc2-c2nc3cccc(F)c3s2)cc1 [Example 17, 7-fluoro-2-[1-(4-methylsulfonylphenyl)-3-trifluoromethyl-1H-pyrazol-5-yl]benzothiazole] | < 4.00 | > 625 | 6.80 | –
18 | NS(=O)(=O)c1ccc(-n2nc(C(F)(F)F)cc2-c2nc3cccc(F)c3s2)cc1 [Example 18, 4-[5-(7-Fluorobenzothiazol-2-yl)-3-trifluoromethyl-1H-pyrazol-1-yl]benzenesulfonamide] | < 4.00 | > 625 | 6.80 | % Inhibition against Reduction of Gain in Body Weight [6]: 75%; Edema Inhibition (%) Left Hind Paw (Non-inflamed Paw) [6]: 116%; Edema Inhibition (%) Right Hind Paw (Inflamed Paw) [6]: 84%; % Inhibition against Change in Relative Weight, Spleen [6]: 48%; % Inhibition against Change in Relative Weight, Thymus [6]: 48%; Inflammation Score Inhibition (%) [6]: 91%
19 | NS(=O)(=O)c1ccc(-n2nc(C(F)F)cc2-c2nc3ccccc3s2)cc1 [Example 21, 4-[5-(Benzothiazol-2-yl)-3-difluoromethyl-1H-pyrazol-1-yl]-benzenesulfonamide] | 4.66 | 386 | 7.24 | –
20 | CS(=O)(=O)c1ccc(-n2nc(C(F)F)cc2-c2nc3ccc(F)cc3s2)cc1 [Example 22, 6-Fluoro-2-[1-(4-methylsulfonylphenyl)-3-difluoromethyl-1H-pyrazol-5-yl]benzothiazole] | < 4.00 | > 2000 | 7.30 | –
21 | NS(=O)(=O)c1ccc(-n2nc(C(F)F)cc2-c2nc3ccc(F)cc3s2)cc1 [Example 23, 4-[5-(6-Fluorobenzothiazol-2-yl)-3-difluoromethyl-1H-pyrazol-1-yl]benzenesulfonamide] | < 4.00 | > 909 | 6.96 | –
